# Measurements: US20260130933A1, “PHARMACEUTICAL COMPOSITION FOR PREVENTION OR TREATMENT OF NEPHROPATHY AND/OR DIABETES MELLITUS, COMPRISING ENAVOGLIFLOZIN” (DAEWOONG PHARMACEUTICAL CO., LTD., priority 2022, published 2026)
# Assay: Example 3: phase 3 trial, enavogliflozin 0.3 mg vs dapagliflozin 10 mg once a day for 24 weeks added to metformin and gemigliptin in patients with type 2 diabetes (same endpoints, rescue drug)
# Format: in vivo, human
# Method: 1) when Metformin (≥1,000 mg/Day) was Administered at a Constant Dose for at Least 8 Weeks Prior to Pre-Visit (Pre-Screening) • Metformin (≥1,000 mg/day) and gemigliptin (50 mg/day) were co-administered during the 8-week stabilization period. […] 4) when Metformin (≥1,000 mg/Day) and Gemigliptin (50 mg/Day) were Co-Administered at Constant Doses for at Least 8 Weeks Prior to Pre-Visit (Prescreening) • Without a separate stabilization period, Pre-visit (pre-screening) was Visit 1 (screening).
# Subjects who met the inclusion/exclusion criteria continued to receive metformin and gemigliptin while receiving a placebo of the clinical trial drug in a single-blind (subject-blinded) state for a 2-week run-in period.
# Here, the randomized subjects were stratified according to the administration therapy (co-administration with two or less agents (one or two agents) or three or more agents) of a conventional hypoglycemic agent (before washout of another hypoglycemic agent) within 24 weeks prior to obtaining written informed consent and by an HbA1c value (<8% or ≥8%) at Visit 1 (screening) measured in the central laboratory.
# The randomized subjects were administered two tablets of the clinical trial drug corresponding to each administration group once a day, and then visited the institution at weeks 6, 12, 18, and 24 during the 24-week administration period to conduct efficacy and safety assessments. In addition, during the clinical trial period, they were instructed to exercise regularly and control their diet without changing their daily life patterns.
# • 1) Change in HbA1c at week 24 after administration of clinical trial drug compared to Visit 2 (randomization)
# • 1) Change in HbA1c at each time point of weeks 6, 12, and 18 after administration of clinical trial drug compared to Visit 2 (randomization) • 2) Change in FPG at each time point of weeks 6, 12, 18, and 24 after administration of clinical trial drug compared to Visit 2 (randomization) • 3) Proportion of subjects achieving HbA1c<7% at each time point of weeks 6, 12, 18, and 24 after administration of clinical trial drug • 4) Proportion of subjects achieving HbA1c<6.5% at each time point of weeks 6, 12, 18, and 24 after administration of clinical trial drug • 5) Proportion of subjects achieving therapeutic response (HbA1c change (HbA1c at Visit 2—HbA1c at each evaluation time point)>0.5% or HbA1c<7% at each evaluation time point compared to Visit 2 (randomization)) at each time point of weeks 6, 12, 18, and 24 after administration of clinical trial drug • 6) Proportion of subjects achieving therapeutic response (HbA1c change (HbA1c at Visit 2—HbA1c at each evaluation time point)>0.7% or HbA1c<7% at each evaluation time point compared to Visit 2 (randomization)) at each time point of weeks 6, 12, 18, and 24 after administration of clinical trial drug • 7) Proportion of subjects achieving therapeutic response (HbA1c change (HbA1c at Visit 2—HbA1c at each evaluation time point)>1% or HbA1c<7% at each evaluation time point compared to Visit 2 (randomization)) at each time point of weeks 6, 12, 18, and 24 after administration of clinical trial drug
# [1] = week 12, per-protocol set, enavogliflozin 0.3 mg, dapagliflozin 10 mg
# [2] = week 18, modified per-protocol set 1, enavogliflozin 0.3 mg, dapagliflozin 10 mg
# [3] = week 18, modified per-protocol set 2
# [4] = week 18, modified per-protocol set 2, enavogliflozin 0.3 mg, dapagliflozin 10 mg
compound,measurement,setting,value
"CCOc1ccc(Cc2cc([C@@H]3O[C@H](CO)[C@@H](O)[C@H](O)[C@H]3O)ccc2Cl)cc1 [Dapagliflozin, reference compound]","Subjects achieving HbA1c target of <7%, %",[1],63.41%
same,"body weight, Median",[1],63.20 kg
same,"Subjects achieving therapeutic glycemic response 1, %","week 12, per-protocol set, response 1 = HbA1c change >0.5% or HbA1c <7%, enavogliflozin 0.3 mg, dapagliflozin 10 mg",89.43%
same,"Subjects achieving therapeutic glycemic response 2, %","week 12, per-protocol set, response 2 = HbA1c change >0.7% or HbA1c <7%, enavogliflozin 0.3 mg, dapagliflozin 10 mg",82.11%
same,"Subjects achieving therapeutic glycemic response 3, %","week 12, per-protocol set, response 3 = HbA1c change >1% or HbA1c <7%, enavogliflozin 0.3 mg, dapagliflozin 10 mg",73.98%
same,"FPG change from baseline, LS mean (SE)",week 18,−23.55(1.59) mg/dL
same,"HDL-C change from baseline, LS mean (SE)",week 18,3.42(0.62) mg/dL
same,"HOMA-IR change from baseline, LS mean (SE)",week 18,−1.01(0.11)
same,"HOMA-β change from baseline, LS mean (SE)",week 18,4.49(2.22)
same,"HbA1c change from baseline, LS mean (SE)",week 18,−0.75(0.04) % p
same,"LDL-C change from baseline, LS mean (SE)",week 18,1.38(1.59) mg/dL
same,"UACR change from baseline, LS mean (SE)",week 18,−8.90(3.79) g/kg
same,"UGCR change from baseline, LS mean (SE)",week 18,45.40(2.27) mg/mg
same,"adiponectin change from baseline, LS mean (SE)",week 18,0.36(0.32) μg/mL
same,"body weight change from baseline, LS mean (SE)",week 18,−3.01(0.23) kg
same,"diastolic blood pressure change from baseline, LS mean (SE)",week 18,−2.42(0.68) mmHg
same,"fasting C-peptide change from baseline, LS mean (SE)",week 18,−0.06(0.02) ng/mL
same,"leptin change from baseline, LS mean (SE)",week 18,−1.06(0.51) ng/ml
same,"systolic blood pressure change from baseline, LS mean (SE)",week 18,−5.16(0.88) mmHg
same,"total cholesterol change from baseline, LS mean (SE)",week 18,3.66(1.88) mg/dL
same,"triglyceride change from baseline, LS mean (SE)",week 18,−12.39(4.34) mg/dL
same,"Change from baseline in HDL-C, ANCOVA LS mean",[2],3.42 mg/dL
same,"Change from baseline in HDL-C, Mean",[2],3.57 mg/dL
same,"Change from baseline in HDL-C, Median",[2],3.00 mg/dL
same,"Change from baseline in LDL-C, ANCOVA LS mean",[2],1.38 mg/dL
same,"Change from baseline in LDL-C, Mean",[2],0.93 mg/dL
same,"Change from baseline in LDL-C, Median",[2],1.50 mg/dL
same,"Change from baseline in total cholesterol, ANCOVA LS mean",[2],3.66 mg/dL
same,"Change from baseline in total cholesterol, Mean",[2],2.51 mg/dL
same,"Change from baseline in total cholesterol, Median",[2],1.00 mg/dL
same,"Change from baseline in triglycerides, ANCOVA LS mean",[2],-12.39 mg/dL
same,"Change from baseline in triglycerides, Mean",[2],-17.31 mg/dL
same,"Change from baseline in triglycerides, Median",[2],-8.50 mg/dL
same,"Fasting HDL-C, Mean",[2],50.99 mg/dL
same,"Fasting HDL-C, Median",[2],51.00 mg/dL
same,"Fasting LDL-C, Mean",[2],78.33 mg/dL
same,"Fasting LDL-C, Median",[2],73.00 mg/dL
same,"Fasting total cholesterol, Mean",[2],146.31 mg/dL
same,"Fasting triglycerides, Mean",[2],115.18 mg/dL
same,"Fasting triglycerides, Median",[2],103.00 mg/dL
same,"fasting Total cholesterol, Median",[2],141.00 mg/dL
same,"Change from baseline in diastolic blood pressure, ANCOVA LS mean",[3],−2.42 mmHg
same,"Change from baseline in diastolic blood pressure, Mean",[3],−2.12 mmHg
same,"Change from baseline in diastolic blood pressure, Median",[3],−2.00 mmHg
same,"Diastolic blood pressure, Mean",[3],71.75 mmHg
same,"Diastolic blood pressure, Median",[3],71.00 mmHg
same,"Change from baseline in systolic blood pressure, ANCOVA LS mean",[4],−5.16 mmHg
same,"Change from baseline in systolic blood pressure, Mean",[4],−4.63 mmHg
same,"Change from baseline in systolic blood pressure, Median",[4],−4.00 mmHg
same,"Systolic blood pressure, Mean",[4],119.31 mmHg
same,"Systolic blood pressure, Median",[4],118.00 mmHg
